For the assay, the target named is UbiX (Pseudomonas aeruginosa, UniProt Q9HX08). Description: crystal structure. The assay is classed as binding. The following applies: complex with DMAP.
Chain of UbiX (Q9HX08 whole entry): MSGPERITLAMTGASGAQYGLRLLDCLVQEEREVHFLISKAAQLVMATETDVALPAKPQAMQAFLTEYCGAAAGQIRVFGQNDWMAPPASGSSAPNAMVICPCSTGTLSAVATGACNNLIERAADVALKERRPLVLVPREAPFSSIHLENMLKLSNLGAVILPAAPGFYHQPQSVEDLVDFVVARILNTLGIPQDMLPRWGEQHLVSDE

On to `Cc1cc2nc3c(=O)[nH]c(=O)nc-3n(C[C@H](O)[C@H](O)[C@H](O)COP(=O)(O)O)c2cc1C` [FMN], for which the crystal structure result is “crystal structure of P. aeruginosa UbiX in complex with oxidized FMN and DMAP”.

The values above are taken from article PMC4988493 (Nature, 2015).
